Test results as given in patent US20140158116A1, “INHIBITING TRPA1 FOR THE TREATMENT OF ASTHMA” (Cubist Pharmaceuticals, Inc., priority 2012, published 2014).
Where two headings read alike, the source gives them in different places.

How the values were obtained:
[1] = system: Ascaris suum antigen-induced pulmonary resistance; assay: Sheep allergic asthma model, pulmonary resistance (RL) after Ascaris suum antigen; assay type: in vivo
Protocol: Compounds were tested in the sheep model of experimental asthma reported in Abraham W M, Asthma & Rhinitis, 2000: 1205-1227 incorporated herein by reference in its entirety.
The unsedated sheep were restrained in a cart in the prone position with their heads immobilized. After topical anesthesia of the nasal passages with 2% lidocaine solution, a balloon catheter was advanced through one nostril into the lower esophagus. The sheep were intubated with a cuffed endotracheal tube through the other nostril. Pleural pressure was estimated with the esophageal balloon catheter. Lateral pressure in the trachea was measured with a sidehole catheter (inner dimension, 2.5 mm) advanced through and positioned distal to the tip of the endotracheal tube. Transpulmonary pressure, the difference between tracheal and pleural pressure, was measured with a differential pressure transducer catheter system. For the measurement of pulmonary resistance (RL), the proximal end of the endotracheal tube was connected to a pneumotachograph. […]
Baseline concentration response curves to aerosol Carbachol were obtained 1 to 3 days before commencement of drug/vehicle treatment. […] Baseline values of pulmonary resistance (RL) were obtained within 30 minutes of treatment and then re-measured 30 minutes before antigen challenge. […]

[2] = target: hTRPV1 (Homo sapiens, UniProt Q8NER1); assay: Patch clamp selectivity, hTRPV1; assay type: cell-based
Protocol: (§1) Data for TRPA1 inhibition and the selectivity of TRPA1 inhibition was obtained by this method for the compound of Formula (Ia) and included in Table 1 and Table 2. All currents were recorded in whole-cell configuration using EPC-9 and EPC-10 amplifiers and Patchmaster software (HEKA). […] The standard pipette solution consisted of 140 mM CsAsp, 10 mM EGTA, 10 mM HEPES, 2.27 mM MgCl2, 1.91 mM CaCl2, 4 mM MgATP, and 0.1-0.3 mM Na2GTP, with pH adjusted to 7.2 with CsOH. In addition, a solution containing 145 mM CsCl, 10 mM HEPES, 10 mM EGTA and 1 mM MgCl2 (pH 7.2 adjusted with CsOH) can be used. The standard bath solution contained 150 mM NaCl, 10 mM HEPES, 10 mM glucose, 4.5 mM KCl, 1 mM EGTA, 3 mM MgCl2, with pH adjusted to 7.4 with NaOH. In some instances, 2 mM CaCl2 was added in place of EGTA and the concentration of MgCl2 was reduced to 1 mM.
Data were collected either by continuous recordings at −60 mV or by applying voltage ramps from a holding potential of 0 mV every 4 s. […] Inward and outward currents were analyzed from the ramps at −80 and 80 mV, respectively. […]
Solutions were switched using a gravity-fed continuous focal perfusion system. […] Temperatures were confirmed using a thermistor (Warner Instruments, TA-29), with temperatures at the recorded cell estimated to be within +/−2° C. of those reported. […]

[3] = target: dTRPA1 (Canis lupus familiaris, UniProt A0A8I3Q1Q7); assay: Whole-cell patch clamp block of inward current through dTRPA1; assay type: cell-based, Dog
Protocol: as §1
(§2) Data were collected either by continuous recordings at −60 mV or by applying voltage ramps from a holding potential of 0 mV every 4 s. Continuous recordings were collected at 400 Hz and digitally filtered off-line at 10 Hz for presentation. Voltage ramps were applied from −100 mV to 100 mV over the course of 400 ms, and data were collected at 10 kHz and filtered at 2.9 kHz. Inward and outward currents were analyzed from the ramps at −80 and 80 mV, respectively. Liquid junction potential correction was not used.
(§3) Solutions were switched using a gravity-fed continuous focal perfusion system. To achieve rapid temperature changes, two temperature control and perfusion systems were employed simultaneously. For temperatures ≧22° C., a Warner Instruments bipolar temperature controller (TC-344B) and inline heater (SHM-8) were used. […] Temperatures were confirmed using a thermistor (Warner Instruments, TA-29), with temperatures at the recorded cell estimated to be within +/−2° C. of those reported.
IC50 of compounds was estimated by testing each compound at 5 micromolar and 500 nanomolar. […] IC50 for compounds between 500 nanomolar and 5 micromolar was similarly estimated. […]

[4] = Human plasma protein binding by equilibrium dialysis; assay type: in vitro ADME; details: percentage bound
Protocol: The amount of compound in buffer (free fraction) and the amount of compound associated with the plasma fraction is determined by equilibrium dialysis; the amount of compound bound is expressed as a percentage. (Banker et al., Journal of Pharmaceutical Sciences (2003) 92(5): 967-74.)

[5] = target: hTRPA1 (Homo sapiens, UniProt O75762); assay: Whole-cell patch clamp block of inward current through hTRPA1; assay type: cell-based
Protocol: as §1, §2, §3
IC50 of compounds was estimated by testing each compound at 5 micromolar and 500 nanomolar. […] IC50 for compounds between 500 nanomolar and 5 micromolar was similarly estimated. Compounds blocking 50% or more at 500 nanomolar are retested at multiple concentrations, and the % block at each is fitted by standard equations to determine IC50 accurately using a 5-6 point concentration/response experiment.

hTRPA1, sequence (O75762 whole entry): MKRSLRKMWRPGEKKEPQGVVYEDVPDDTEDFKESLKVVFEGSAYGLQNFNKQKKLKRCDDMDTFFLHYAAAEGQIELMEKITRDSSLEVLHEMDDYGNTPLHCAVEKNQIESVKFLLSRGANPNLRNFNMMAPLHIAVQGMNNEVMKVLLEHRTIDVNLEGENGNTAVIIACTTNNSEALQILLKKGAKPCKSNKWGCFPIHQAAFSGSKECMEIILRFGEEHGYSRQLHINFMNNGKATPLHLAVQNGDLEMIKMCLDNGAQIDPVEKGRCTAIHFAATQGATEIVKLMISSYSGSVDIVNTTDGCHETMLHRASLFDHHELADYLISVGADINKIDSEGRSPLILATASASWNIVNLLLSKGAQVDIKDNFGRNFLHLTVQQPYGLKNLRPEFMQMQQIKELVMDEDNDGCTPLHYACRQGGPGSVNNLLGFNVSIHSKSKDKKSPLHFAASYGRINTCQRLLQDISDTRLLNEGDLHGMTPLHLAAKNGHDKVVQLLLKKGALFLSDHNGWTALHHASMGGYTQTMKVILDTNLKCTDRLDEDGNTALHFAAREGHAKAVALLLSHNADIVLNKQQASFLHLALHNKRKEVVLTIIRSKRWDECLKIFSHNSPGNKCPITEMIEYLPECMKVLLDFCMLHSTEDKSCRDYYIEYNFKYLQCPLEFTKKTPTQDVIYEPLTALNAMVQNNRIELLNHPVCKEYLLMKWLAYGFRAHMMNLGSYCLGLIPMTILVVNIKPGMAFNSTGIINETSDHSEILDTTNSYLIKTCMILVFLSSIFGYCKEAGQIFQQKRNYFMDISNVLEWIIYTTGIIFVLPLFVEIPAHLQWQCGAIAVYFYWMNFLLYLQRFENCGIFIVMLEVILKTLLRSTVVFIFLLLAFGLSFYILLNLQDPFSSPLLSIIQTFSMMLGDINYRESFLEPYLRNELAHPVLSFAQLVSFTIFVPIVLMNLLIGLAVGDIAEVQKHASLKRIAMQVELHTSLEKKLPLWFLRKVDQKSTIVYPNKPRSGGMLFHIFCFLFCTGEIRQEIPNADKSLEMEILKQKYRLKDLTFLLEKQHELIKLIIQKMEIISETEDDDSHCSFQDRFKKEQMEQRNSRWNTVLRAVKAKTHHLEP
hTRPV1, sequence (Q8NER1 whole entry): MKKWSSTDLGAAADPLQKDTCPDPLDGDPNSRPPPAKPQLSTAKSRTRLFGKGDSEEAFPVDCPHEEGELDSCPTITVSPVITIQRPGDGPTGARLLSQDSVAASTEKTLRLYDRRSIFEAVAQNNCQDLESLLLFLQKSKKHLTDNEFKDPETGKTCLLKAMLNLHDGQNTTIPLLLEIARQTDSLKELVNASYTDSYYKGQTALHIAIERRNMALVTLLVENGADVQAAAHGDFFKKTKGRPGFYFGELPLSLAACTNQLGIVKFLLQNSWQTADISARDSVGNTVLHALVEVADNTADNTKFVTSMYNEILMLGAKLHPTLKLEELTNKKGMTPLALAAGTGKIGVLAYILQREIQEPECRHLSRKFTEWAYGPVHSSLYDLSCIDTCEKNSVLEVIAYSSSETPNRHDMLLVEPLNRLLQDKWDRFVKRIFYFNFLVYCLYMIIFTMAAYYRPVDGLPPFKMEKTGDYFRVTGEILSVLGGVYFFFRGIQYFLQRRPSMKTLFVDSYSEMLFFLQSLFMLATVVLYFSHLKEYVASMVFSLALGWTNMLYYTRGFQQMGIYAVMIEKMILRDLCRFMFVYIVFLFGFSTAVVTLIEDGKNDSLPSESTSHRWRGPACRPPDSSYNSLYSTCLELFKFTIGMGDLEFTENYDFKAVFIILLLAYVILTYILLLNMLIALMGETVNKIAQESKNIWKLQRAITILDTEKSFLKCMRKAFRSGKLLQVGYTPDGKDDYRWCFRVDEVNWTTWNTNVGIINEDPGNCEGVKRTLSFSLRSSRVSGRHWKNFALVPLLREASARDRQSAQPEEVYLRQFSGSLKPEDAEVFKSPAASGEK
dTRPA1, sequence (A0A8I3Q1Q7 1-1118): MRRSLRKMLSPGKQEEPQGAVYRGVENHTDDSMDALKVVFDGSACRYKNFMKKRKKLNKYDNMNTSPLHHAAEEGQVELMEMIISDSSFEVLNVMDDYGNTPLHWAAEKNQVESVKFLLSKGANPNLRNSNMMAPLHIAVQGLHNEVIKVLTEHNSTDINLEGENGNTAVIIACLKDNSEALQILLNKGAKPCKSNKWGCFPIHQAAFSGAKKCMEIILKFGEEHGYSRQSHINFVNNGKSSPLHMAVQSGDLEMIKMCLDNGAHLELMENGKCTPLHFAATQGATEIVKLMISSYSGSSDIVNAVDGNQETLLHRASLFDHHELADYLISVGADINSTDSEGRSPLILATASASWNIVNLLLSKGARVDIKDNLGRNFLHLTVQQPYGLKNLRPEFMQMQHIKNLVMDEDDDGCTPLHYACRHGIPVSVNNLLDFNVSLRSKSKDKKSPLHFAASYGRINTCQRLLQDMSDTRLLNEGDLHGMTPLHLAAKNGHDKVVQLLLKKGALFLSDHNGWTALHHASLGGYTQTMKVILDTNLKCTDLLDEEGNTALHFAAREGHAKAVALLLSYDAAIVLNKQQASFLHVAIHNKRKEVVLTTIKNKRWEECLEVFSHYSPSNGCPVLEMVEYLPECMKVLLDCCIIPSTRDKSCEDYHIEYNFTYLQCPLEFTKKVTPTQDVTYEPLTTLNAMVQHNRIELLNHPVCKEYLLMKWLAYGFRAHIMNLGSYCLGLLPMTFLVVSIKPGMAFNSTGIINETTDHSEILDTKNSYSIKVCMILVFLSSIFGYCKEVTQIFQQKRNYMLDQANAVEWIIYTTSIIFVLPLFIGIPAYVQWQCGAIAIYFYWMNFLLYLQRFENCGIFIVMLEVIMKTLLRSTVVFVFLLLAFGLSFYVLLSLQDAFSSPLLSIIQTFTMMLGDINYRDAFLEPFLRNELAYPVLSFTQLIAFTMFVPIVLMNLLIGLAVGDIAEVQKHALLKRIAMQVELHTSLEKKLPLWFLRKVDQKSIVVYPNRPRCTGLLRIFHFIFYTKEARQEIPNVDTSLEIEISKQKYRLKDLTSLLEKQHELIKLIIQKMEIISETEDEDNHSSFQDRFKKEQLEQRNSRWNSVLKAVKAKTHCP

## C[C@H]1CCCN1c1ncc(-c2cccc(NC(=O)Cn3cnc4c3c(=O)n(C)c(=O)n4C)n2)cn1 [Formula (Ia)]
[1]; 5 mg/kg PO daily for 4 days
  inhibition of late phase pulmonary resistance response: ~45%
[1]; 10 mg/kg PO daily for 4 days
  inhibition of late phase pulmonary resistance response: approximately 75%
[2]
  Fold Selectivity Compared to TRPA1: >100 fold
[2]; 500 nanomolar Capsaicin, Inward (−80 mV)
  IC50: > 10000 nM
[3]; class symbol, read-out: Potency (IC50) Dog
  IC50: ≥ 100 nM
[3]; dTRPA1, Dog, current activation 10 micromolar AITC, read-out: IC50 Inward current
  IC50: 102 ± 20 nM
[4]
  fraction unbound: > 0.01
[5]; hTRPA1, Human, current activation 10 micromolar AITC, whole cell patch, read-out: IC50 Inward current
  IC50: 93 ± 22 nM
[5]; hTRPA1, class symbol, read-out: Potency (IC50) Human
  IC50: 50 to 100 nM
[5]; versus the eight channels of Table 2
  selectivity for block of TRPA1 over all other tested channels: at least 100 fold
